Source: patent US20160279236A1, “USE OF RAPAMYCIN AS VACCINE ADJUVANT AND PREPARATION METHOD THEREFOR” (INSTITUT PASTEUR OF SHANGHAI, CHINESE ACADEMY OF SCIENCES, priority 2013, published 2016)

Tests used:
[1] = test system: OVA-specific T cell responses and antibody responses; experiment: Ovalbumin immunization of mice with adjuvants: OVA-specific T cell and antibody responses; format: in vivo
Description: 6-8 weeks aged mice were primarily immunized by the inventors using intraperitoneal injection method, wherein Ovalbumin (10 μg/mouse) was used as antigen and PBS (negative control), MPL (10 μg/mouse, positive control), rapamycin (100 μg/mouse), rapamycin (100 μg/mouse)+MPL (10 μg/mouse) as adjuvant respectively, and were immunized again with ovalbumin (10 μg/mouse, without adjuvant) at 3 weeks. […] After 48 hours, enzyme linked immunosorbent assay (ELISA) was used to determine the content of IFNγ in the supernatant.

[2] = test system: melanoma murine cell line B16 OVA; experiment: Tumor growth of B16 OVA melanoma in mice immunized with ovalbumin plus adjuvants; format: in vivo; conditions: ovalbumin 10 μg/mouse i.p. prime and boost; polyI:C 50 μg, rapamycin 100 μg, MPL 10 μg per mouse; B16 OVA 1×10^6 cells s.c. 4 weeks after secondary immunization
Description: By intraperitoneal injecting, 6-8 weeks aged mice were immunized using ovalbumin (10 μg/mouse) as antigen and PBS (200 μl, negative control), polyI:C (Invivogen) (50 μg/mouse), rapamycin (100 μg/mouse), MPL (10 μg/mouse), MPL (10 μg/mouse)+rapamycin (100 μg/mouse), polyI:C (50 μg/mouse)+rapamycin (100 μg/mouse) used as adjuvant to conduct primary immunization. After two weeks, the mice were boosted by the same program. 4 weeks after the secondary immunization, melanoma murine cell line B16 OVA expressing OVA was subcutaneous implanted into mice (1×10^6 cells/mouse), and the tumor growth was measured.

[3] = blood 1 week after secondary immunization, single adjuvants vs negative control, combination vs MPL alone

Row | Substance | OVA-specific IgG1 antibody titers [1, 3] | OVA-specific IgG2b antibody titers [1, 3] | OVA-specific IgG2c antibody titers [1, 3] | OVA-specific CD8+ T cell responses ([1]; mice i.p., ovalbumin 10 μg, MPL 10 μg, rapamycin 100 μg per mouse, IFNγ ELISA of splenic cells stimulated with OVA-1, 48 hours) | OVA-specific CD4+ (Th1) T cell responses ([1]; mice i.p., ovalbumin 10 μg, MPL 10 μg, rapamycin 100 μg per mouse, IFNγ ELISA of splenic cells stimulated with OVA-II, 48 hours) | tumor growth [2]
1 | monophosphoryl lipid A [MPL] | significantly increase | significantly increase | significantly increase | significantly increase | significantly increase | –
2 | polyI:C | – | – | – | – | – | grew slowly and was of relatively small volume
